IC50 data for 21 compounds are collected here from US10273237B2, “Imidazopyridazine compounds useful as modulators of IL-12, IL-23 and/or IFN-α responses” (BRISTOL-MYERS SQUIBB COMPANY, priority 2013, dated 2019).

Test [1] deals with IL-23-stimulated Kit225 T cells with STAT-dependent luciferase reporter. Description: Kit225 T cell assay, STAT-dependent luciferase reporter, IL-23 stimulated. It is filed as cell-based, human. The settings on record: read-out: IL-23 Kit225 Reporter, LE (IC50). The protocol: (§1) Kit225 T cells with a stably-integrated STAT-dependent luciferase reporter were plated in RPMI (GIBCO) containing 10% heat-inactivated FBS (GIBCO) and 100 U/mL PenStrep (GIBCO). The cells were then stimulated with either 20 ng/mL human recombinant IL-23 or 200 U/mL human recombinant IFNα (PBL InterferonSource) for 5-6 hours. Luciferase expression was measured using the STEADY-GLO® Luciferase Assay System (PROMEGA®) according to the manufacturer's instructions.
On the technique in general: A reporter such as luciferase makes a cellular process visible.

The subject of test [2] is IFNα-stimulated Kit225 T cells with STAT-dependent luciferase reporter. The experiment in a line: Kit225 T cell assay, STAT-dependent luciferase reporter, IFNα stimulated. The class given is cell-based, human. The settings on record: 5-6 hours, read-out: IFNa Kit225 Reporter, LE (IC50). Here is the method: as §1
The mark [3] stands for this setting: 20 ng/mL human recombinant IL-23, 5-6 hours.
[4] abbreviates: 200 U/mL human recombinant IFNα.
[5] abbreviates: Homo sapiens, KIT225, 20 ng/mL human recombinant IL-23, 5-6 hours.
Setting [6] is: Homo sapiens, KIT225, 200 U/mL human recombinant IFNα.

The structures appear in SMILES notation. pIC50: −log10 of the molar value. Like-named read-outs stand apart in the source and are kept apart here.

With `CNc1cc(Nc2cccn(-c3cccnn3)c2=O)nn2c(C(=O)NC3CCC3)cnc12` [Example 104], the values for the pIC50 in test [1] (setting [3]) and in test [2] (setting [4]) were 6.70 and 7.10, respectively.

For `CNc1cc(Nc2cc(Cl)cn(C)c2=O)nn2c(C(=O)NC3CC3)cnc12` [Example 22], the pIC50 is 6.82 in test [1] (setting [3]) and 7.30 in test [2] (setting [4]).

Regarding `CNc1cc(Nc2cccn(-c3ccc(C(=O)N4CCCC4)cn3)c2=O)nn2c(C(=O)N[C@@H]3C[C@@H]3F)cnc12` [compound 265], the pIC50 in test [1] (setting [5]) is 7.40; in test [2] (setting [6]), 7.22.

Turning to `CNc1cc(Nc2cccn(-c3ccc(C(F)F)cc3)c2=O)nn2c(C(=O)NC3(C#N)CC3)cnc12` [Example 20], the pIC50 in test [1] (setting [3]) is 6.89; in test [2] (setting [4]), 7.10.

For `CNc1cc(Nc2cccn(-c3cnc(C)cn3)c2=O)nn2c(C(=O)N[C@@H]3C[C@@H]3F)cnc12` [Example 103], the pIC50 is 7.22 in test [1] (setting [3]) and 7.70 in test [2] (setting [4]).

`CNc1cc(Nc2cccn(-c3cncc(C)n3)c2=O)nn2c(C(=O)NCC(C)(C)CO)cnc12` [Example 238]: the values for the pIC50 in test [1] (setting [3]) and in test [2] (setting [4]) were 7.22 and 6.28, respectively.

Regarding `CNc1cc(Nc2cccn(-c3cnc(C(=O)N(C)C)cn3)c2=O)nn2c(C(=O)NCC(C)(C)CO)cnc12` [compound 262], the pIC50 in test [1] (setting [5]) is 7.05; in test [2] (setting [6]) it was 6.96.

Regarding `CNc1cc(Nc2cccn(C3(C)CC3)c2=O)nn2c(C(=O)NC3(C#N)CC3)cnc12` [Example 162], the pIC50 in test [1] (setting [3]) was 6.19; in test [2] (setting [4]) it was 6.60.

As to `CCNC(=O)c1cnc2c(NC)cc(Nc3cccn(-c4ccc(C)nn4)c3=O)nn12` [Example 99], the pIC50 is 6.96 in test [1] (setting [3]) and 6.64 in test [2] (setting [4]).

In the case of `CCNC(=O)c1cnc2c(NC)cc(Nc3cccn(C)c3=O)nn12` [Example 210], the figures for the negative logarithm of the IC50 (pIC50) in test [1] (setting [3]) and in test [2] (setting [4]) were 6.66 and 6.41, respectively.

With `CNc1cc(Nc2ccnn(-c3ccccc3)c2=O)nn2c(C(=O)NC3CC3)cnc12` [Example 179], the pIC50 in test [1] (setting [3]) was 6.32; in test [2] (setting [4]), 6.24.

`CNc1cc(Nc2cc(Cl)cn(C)c2=O)nn2c(C(=O)NC3(C#N)CCC3)cnc12` [Example 43]: the pIC50 is 6.23 in test [1] (setting [3]) and 6.96 in test [2] (setting [4]).

Turning to `CNc1cc(Nc2cncn(-c3cccc(C(C)O)n3)c2=O)nn2c(C(=O)NC3CCC3)cnc12` (racemic) [Example 87], the pIC50 in test [1] (setting [3]) was 6.66; in test [2] (setting [4]), 6.80.

Take `CNc1cc(Nc2cc(F)cn(-c3ccccn3)c2=O)nn2c(C(=O)NC3CCC3)cnc12` [Example 150]: the pIC50 in test [1] (setting [3]) was 7.22; in test [2] (setting [4]), 7.70.

Regarding `CCn1cc(Cl)cc(Nc2cc(NC)c3ncc(C(=O)NC4CC4)n3n2)c1=O` [Example 243, 6-((5-chloro-1-ethyl-2-oxo-1,2-dihydropyridin-3-yl)amino)-N-cyclopropyl-8-(methylamino)imidazo[1,2-b]pyridazine-3-carboxamide], the figures for the pIC50 in test [1] (setting [5]) and in test [2] (setting [6]) were 7.30 and 7.70, respectively.

On to `CNc1cc(Nc2cccn(C)c2=O)nn2c(C(=O)NC3CCCC3)cnc12` [Example 208], for which the pIC50 in test [1] (setting [3]) is 7.10; in test [2] (setting [4]), 7.22.

As for `CCNC(=O)c1cnc2c(NC)cc(Nc3cccn(-c4ccn(C)n4)c3=O)nn12` [Example 107], the pIC50 was 6.64 in test [1] (setting [3]) and 6.57 in test [2] (setting [4]).

For the compound `CNc1cc(Nc2cccn(C3CCC3)c2=O)nn2c(C(=O)NC3(C#N)CC3)cnc12` [Example 229], the figures for the pIC50 in test [1] (setting [3]) and in test [2] (setting [4]) were 6.62 and 6.74, respectively.

Turning to `CNc1cc(Nc2cccn(-c3ncccn3)c2=O)nn2c(C(=O)NC3CCCC3)cnc12` [Example 170], the results for the pIC50 in test [1] (setting [3]) and in test [2] (setting [4]) were 6.72 and 6.43, respectively.

Consider `CNc1cc(Nc2cccn(-c3cccc(F)n3)c2=O)nn2c(C(=O)NCc3ccccn3)cnc12` [Example 193], for which the pIC50 was 6.85 in test [1] (setting [3]) and 6.48 in test [2] (setting [4]).

Regarding `CNc1cc(Nc2cccn(-c3ccc(F)cn3)c2=O)nn2c(C(=O)N[C@@H]3C[C@@H]3F)cnc12` [Example 37], the pIC50 was 7.70 in test [1] (setting [3]) and 7.52 in test [2] (setting [4]).

Usually pIC50 stands for the negative decadic logarithm of the IC50, by convention in mol/L.
